Molecules are shown by their SMILES.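 Five concentrations, 48 hours, 96-well plates. At the GI50, growth is halved. The concentration for full growth arrest is given as TGI.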 Where only a bound is given, the exact number is not on record here.

Drawing on PubChem BioAssay (NCI), this text covers TGI and GI50 for 7 compounds.

Among the test systems are A549 NSCLC; ACHN renal; HCC-2998 colon; HOP-62 NSCLC; HOP-92 NSCLC; NCI-H23 lung; RPMI-8226 leukemia; SK-MEL-5 melanoma; T-47D breast; UACC-257 melanoma.
Holding throughout (assay): growth of human tumour cells (NCI), 48 h

As for `Cc1c(N2CCCC2)cc2c(c1NC(=O)c1ccccc1Cl)C(C)(C)CC2(C)C`, the TGI is 27.6 µM in the assay on A549 NSCLC; 28.4 µM in the assay with ACHN renal; 25.9 µM in the assay with HCC-2998 colon; 28.4 µM in the assay on HOP-62 NSCLC; 24 µM in the assay with HOP-92 NSCLC; 28.5 µM in the assay with NCI-H23 lung. Further, the TGI in the assay with RPMI-8226 leukemia is 34.2 µM; with SK-MEL-5 melanoma it was 33.7 µM; in the assay on T-47D breast, 24.6 µM; in the assay on UACC-257 melanoma it was 24.1 µM.

For `O=C(NC1CCN(Cc2ccccc2)CC1)c1cc(-c2ccncc2)nc2ccc(Cl)cc12`, the GI50 in the assay with A549 NSCLC was 10.6 µM; in the assay on ACHN renal, 6.71 µM; with HCC-2998 colon, 21.6 µM; in the assay on HOP-62 NSCLC it was 14.5 µM; with HOP-92 NSCLC, 2.49 µM; with NCI-H23 lung, 43.5 µM. The GI50 is 12.4 µM with RPMI-8226 leukemia, 9.07 µM in the assay with SK-MEL-5 melanoma, 13.3 µM with T-47D breast and 16.9 µM in the assay with UACC-257 melanoma. The TGI with A549 NSCLC was 54.2 µM; in the assay with ACHN renal it was 24.7 µM; in the assay with HCC-2998 colon, over 91.1 µM; with HOP-62 NSCLC it was over 100 µM; in the assay on HOP-92 NSCLC, 47.4 µM; in the assay with NCI-H23 lung, over 100 µM. The TGI in the assay on RPMI-8226 leukemia was over 74 µM; in the assay on SK-MEL-5 melanoma, 21.7 µM; in the assay with T-47D breast, 49.1 µM; in the assay with UACC-257 melanoma it was 36.3 µM.

In the case of `Cc1ccc([N+](=O)[O-])cc1NC(=O)Nc1cccc(F)c1`, the GI50 in the assay on A549 NSCLC is 3.42 µM; in the assay on ACHN renal, 3.78 µM; with HCC-2998 colon, 4.02 µM; with HOP-62 NSCLC, 9.77 µM; with HOP-92 NSCLC, 3.46 µM; in the assay on NCI-H23 lung, 2.61 µM. Besides, the GI50 in the assay with RPMI-8226 leukemia was 2.82 µM; in the assay on SK-MEL-5 melanoma, 4.04 µM; in the assay with T-47D breast, 3.45 µM; with UACC-257 melanoma, 4.23 µM. Also, the TGI is 26.2 µM in the assay with A549 NSCLC; 23 µM with ACHN renal; over 100 µM in the assay with HCC-2998 colon; 43 µM in the assay on HOP-62 NSCLC; 15.2 µM in the assay on HOP-92 NSCLC; over 100 µM in the assay with NCI-H23 lung. The TGI was 20.7 µM in the assay with RPMI-8226 leukemia, over 100 µM with SK-MEL-5 melanoma, over 100 µM in the assay on T-47D breast and over 100 µM in the assay on UACC-257 melanoma.

`OC(c1cccc(-n2ccc(C(F)(F)F)n2)c1)c1cnccc1NC1CCCCCC1` (stereo not given): the GI50 with A549 NSCLC is 1.81 µM; in the assay on ACHN renal, 1.65 µM; in the assay with HCC-2998 colon it was 1.61 µM; with HOP-62 NSCLC, 1.95 µM; in the assay with HOP-92 NSCLC it was 1.21 µM; in the assay with NCI-H23 lung it was 1.74 µM. The GI50 is 1.57 µM in the assay with RPMI-8226 leukemia, 1.73 µM with SK-MEL-5 melanoma, 1.77 µM with T-47D breast and 1.86 µM with UACC-257 melanoma. For the same compound, the TGI with A549 NSCLC turned out to be 3.56 µM; in the assay on ACHN renal it was 3.02 µM; in the assay with HCC-2998 colon, 3.03 µM; in the assay on HOP-62 NSCLC it was 3.84 µM; in the assay with HOP-92 NSCLC, 2.53 µM; in the assay on NCI-H23 lung, 3.2 µM. Moreover, the TGI was 4.51 µM with RPMI-8226 leukemia, 3.18 µM with SK-MEL-5 melanoma, 4.23 µM in the assay on T-47D breast and 3.76 µM with UACC-257 melanoma.

As for `O=C1c2ccccc2-c2c1c1ccccc1c(=O)n2CCCCNCCCn1c2c(c3ccccc3c1=O)C(=O)c1ccccc1-2`, the GI50 in the assay with A549 NSCLC is 0.508 µM; in the assay with ACHN renal, 0.0416 µM; with HCC-2998 colon it was 0.698 µM; in the assay on HOP-62 NSCLC it was 0.13 µM; in the assay on HOP-92 NSCLC it was 0.994 µM; with NCI-H23 lung it was 0.461 µM. The GI50 in the assay with RPMI-8226 leukemia was 0.0193 µM; in the assay on SK-MEL-5 melanoma, 0.529 µM; in the assay with T-47D breast it was 1.32 µM; with UACC-257 melanoma, 3.23 µM. Besides, the TGI with A549 NSCLC stood at 2.9 µM; with ACHN renal, 2.31 µM; in the assay with HCC-2998 colon, 1.4 µM; in the assay on HOP-62 NSCLC, 1.42 µM; with HOP-92 NSCLC, 3.45 µM; with NCI-H23 lung, 2.53 µM. The TGI came to 0.755 µM in the assay on RPMI-8226 leukemia, 1.49 µM in the assay on SK-MEL-5 melanoma, 4.86 µM in the assay with T-47D breast and 13.8 µM in the assay with UACC-257 melanoma.

Turning to `COc1c(C=O)c2c(c(OC)c1OC)-c1ccc(OC)c(=O)cc1[C@@H](NC(C)=O)CC2`, the TGI in the assay on A549 NSCLC was over 100 µM; in the assay with ACHN renal, over 100 µM; in the assay on HCC-2998 colon it was 34.4 µM; in the assay with HOP-62 NSCLC it was over 100 µM; in the assay on HOP-92 NSCLC it was 7.18 µM; with NCI-H23 lung it was 3.47 µM. The TGI was 47.2 µM in the assay on RPMI-8226 leukemia, 0.272 µM in the assay on SK-MEL-5 melanoma, over 100 µM in the assay on T-47D breast and over 88.8 µM with UACC-257 melanoma.

Regarding `COc1ccc2oc(=O)cc(C(c3ccc[nH]3)c3ccc[nH]3)c2c1`, the GI50 in the assay with A549 NSCLC is 0.118 µM; in the assay with ACHN renal, 0.124 µM; with HCC-2998 colon, 0.0973 µM; with HOP-62 NSCLC, 0.107 µM; in the assay on HOP-92 NSCLC, 0.0985 µM; in the assay with NCI-H23 lung, 0.11 µM. Besides, the GI50 in the assay on RPMI-8226 leukemia is 0.376 µM; in the assay with SK-MEL-5 melanoma, 0.08 µM; with T-47D breast, 0.118 µM; in the assay on UACC-257 melanoma, 0.468 µM. The TGI with A549 NSCLC is 10.8 µM; in the assay with ACHN renal, 13.1 µM; with HCC-2998 colon, 2.15 µM; in the assay on HOP-62 NSCLC, 11.7 µM; in the assay on HOP-92 NSCLC, 2.83 µM; in the assay with NCI-H23 lung, 14 µM. For the same compound, the TGI in the assay with RPMI-8226 leukemia is 3.64 µM; with SK-MEL-5 melanoma, 0.141 µM; in the assay with T-47D breast, 26.6 µM; with UACC-257 melanoma it was 18 µM.
